What was measured:
Test in all cases: Drug affinity chromatography with c-ponatinib and LC-MS/MS (ponatinib interactome)
Assay type in all cases: binding
[1] = target: T1, proteins of U2OS cell lysate (Homo sapiens, UniProt Q96MW5); settings: COG8, Conserved oligomeric Golgi complex subunit 8
T1 construct: Proteins enriched by c-ponatinib from U2OS cell lysate; endogenous in cells; host or cells: U2OS cell lysate
How it was run: (§1)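 U2OS cell lysate in NP-40 lysis buffer (2 mg protein per pulldown) was incubated with amine-derivatized NHS beads for 2 h at 4 °C. Bound proteins were washed, eluted with 100 mM formic acid, reduced, alkylated and trypsin-digested, then identified by nano-UPLC–MS/MS on Orbitrap instruments with a 60 min gradient.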

[2] = target: T2, proteins of U2OS cell lysate (Homo sapiens, UniProt Q13813); settings: SPTAN1, Spectrin alpha chain, non-erythrocytic 1
T2 construct: Proteins enriched by c-ponatinib from U2OS cell lysate; endogenous in cells; host or cells: U2OS cell lysate
T2 sequence (Q13813 whole entry): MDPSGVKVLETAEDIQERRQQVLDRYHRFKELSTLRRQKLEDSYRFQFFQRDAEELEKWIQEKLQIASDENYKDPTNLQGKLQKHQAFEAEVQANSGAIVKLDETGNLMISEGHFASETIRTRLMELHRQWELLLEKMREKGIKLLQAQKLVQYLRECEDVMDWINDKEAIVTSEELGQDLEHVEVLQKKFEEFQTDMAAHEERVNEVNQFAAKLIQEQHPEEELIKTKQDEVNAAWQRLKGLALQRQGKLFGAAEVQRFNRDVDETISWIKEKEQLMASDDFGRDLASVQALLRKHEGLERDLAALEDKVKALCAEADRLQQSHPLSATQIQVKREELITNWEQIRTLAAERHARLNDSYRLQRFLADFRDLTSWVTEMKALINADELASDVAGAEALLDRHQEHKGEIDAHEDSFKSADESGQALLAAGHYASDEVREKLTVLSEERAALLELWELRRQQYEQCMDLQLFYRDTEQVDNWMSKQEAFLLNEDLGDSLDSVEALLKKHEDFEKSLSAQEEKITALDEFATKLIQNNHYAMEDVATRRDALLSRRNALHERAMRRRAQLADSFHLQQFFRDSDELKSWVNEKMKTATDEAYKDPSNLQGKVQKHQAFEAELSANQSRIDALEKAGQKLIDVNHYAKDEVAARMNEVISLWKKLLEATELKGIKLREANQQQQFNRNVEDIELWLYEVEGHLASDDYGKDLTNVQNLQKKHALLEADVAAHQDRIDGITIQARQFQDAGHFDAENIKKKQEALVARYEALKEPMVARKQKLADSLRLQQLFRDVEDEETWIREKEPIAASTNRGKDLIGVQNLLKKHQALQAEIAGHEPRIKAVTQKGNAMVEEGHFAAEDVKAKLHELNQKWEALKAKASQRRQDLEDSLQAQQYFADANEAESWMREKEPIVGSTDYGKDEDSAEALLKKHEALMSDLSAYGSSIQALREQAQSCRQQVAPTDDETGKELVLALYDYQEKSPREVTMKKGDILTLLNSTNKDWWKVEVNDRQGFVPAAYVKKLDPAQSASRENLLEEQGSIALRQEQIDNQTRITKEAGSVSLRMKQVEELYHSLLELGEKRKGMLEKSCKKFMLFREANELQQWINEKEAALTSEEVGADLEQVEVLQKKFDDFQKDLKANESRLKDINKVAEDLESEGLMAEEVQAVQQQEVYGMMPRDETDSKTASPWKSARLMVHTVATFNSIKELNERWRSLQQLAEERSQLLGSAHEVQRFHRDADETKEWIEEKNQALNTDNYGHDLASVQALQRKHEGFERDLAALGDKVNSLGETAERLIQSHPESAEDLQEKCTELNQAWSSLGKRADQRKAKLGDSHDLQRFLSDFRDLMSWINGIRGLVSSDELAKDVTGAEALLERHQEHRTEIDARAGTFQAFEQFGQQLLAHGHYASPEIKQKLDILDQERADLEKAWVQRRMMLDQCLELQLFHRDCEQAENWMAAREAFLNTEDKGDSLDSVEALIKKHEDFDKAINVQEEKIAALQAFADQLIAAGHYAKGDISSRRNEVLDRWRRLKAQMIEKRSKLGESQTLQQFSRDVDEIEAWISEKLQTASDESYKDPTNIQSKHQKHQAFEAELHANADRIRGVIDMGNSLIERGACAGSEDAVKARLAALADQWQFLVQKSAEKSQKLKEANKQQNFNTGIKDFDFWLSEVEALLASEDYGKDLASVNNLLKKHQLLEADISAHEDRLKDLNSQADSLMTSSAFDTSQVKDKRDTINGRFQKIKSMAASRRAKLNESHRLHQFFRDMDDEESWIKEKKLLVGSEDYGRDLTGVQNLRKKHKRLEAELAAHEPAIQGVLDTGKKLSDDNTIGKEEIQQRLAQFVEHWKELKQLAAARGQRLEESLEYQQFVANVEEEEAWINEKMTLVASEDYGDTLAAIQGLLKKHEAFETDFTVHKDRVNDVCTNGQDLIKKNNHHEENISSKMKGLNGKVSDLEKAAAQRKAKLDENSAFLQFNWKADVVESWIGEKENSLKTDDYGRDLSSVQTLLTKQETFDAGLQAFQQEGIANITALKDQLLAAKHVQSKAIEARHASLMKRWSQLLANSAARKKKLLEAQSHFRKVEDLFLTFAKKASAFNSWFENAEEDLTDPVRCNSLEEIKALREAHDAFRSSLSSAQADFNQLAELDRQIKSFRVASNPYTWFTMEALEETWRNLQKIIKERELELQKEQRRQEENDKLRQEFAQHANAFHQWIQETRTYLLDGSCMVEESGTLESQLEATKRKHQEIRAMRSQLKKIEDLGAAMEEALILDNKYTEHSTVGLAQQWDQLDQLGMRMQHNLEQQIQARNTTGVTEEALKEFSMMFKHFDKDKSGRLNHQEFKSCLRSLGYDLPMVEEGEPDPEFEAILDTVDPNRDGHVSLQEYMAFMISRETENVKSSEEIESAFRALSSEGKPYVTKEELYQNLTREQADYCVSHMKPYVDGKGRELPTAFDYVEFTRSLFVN
How it was run: as §1

[3] = target: T3, proteins of U2OS cell lysate (Homo sapiens, UniProt O95347); settings: SMC2, Structural maintenance of chromosomes protein 2
T3 construct: Proteins enriched by c-ponatinib from U2OS cell lysate; endogenous in cells; host or cells: U2OS cell lysate
How it was run: as §1

[4] = target: T4, proteins of U2OS cell lysate (Homo sapiens, UniProt Q13561); settings: DCTN2, Dynactin subunit 2
T4 construct: Proteins enriched by c-ponatinib from U2OS cell lysate; endogenous in cells; host or cells: U2OS cell lysate
How it was run: as §1

[5] = target: T5, proteins of U2OS cell lysate (Homo sapiens, UniProt P48047); settings: ATP5O, ATP synthase subunit O, mitochondrial
T5 construct: Proteins enriched by c-ponatinib from U2OS cell lysate; endogenous in cells; host or cells: U2OS cell lysate
How it was run: as §1

[6] = target: T6, proteins of U2OS cell lysate (Homo sapiens, UniProt P29323); settings: EPHB2, Ephrin type-B receptor 2
T6 construct: Proteins enriched by c-ponatinib from U2OS cell lysate; endogenous in cells; host or cells: U2OS cell lysate
How it was run: as §1

[7] = target: T7, proteins of U2OS cell lysate (Homo sapiens, UniProt P54760); settings: EPHB4, Ephrin type-B receptor 4
T7 construct: Proteins enriched by c-ponatinib from U2OS cell lysate; endogenous in cells; host or cells: U2OS cell lysate
How it was run: as §1

[8] = target: T8, proteins of U2OS cell lysate (Homo sapiens, UniProt P31947); settings: SFN, 14-3-3 protein sigma
T8 construct: Proteins enriched by c-ponatinib from U2OS cell lysate; endogenous in cells; host or cells: U2OS cell lysate
How it was run: as §1

[9] = target: T9, proteins of U2OS cell lysate (Homo sapiens, UniProt P29692); settings: EEF1D, Elongation factor 1-delta
T9 construct: Proteins enriched by c-ponatinib from U2OS cell lysate; endogenous in cells; host or cells: U2OS cell lysate
How it was run: as §1

[10] = target: T10, proteins of U2OS cell lysate (Homo sapiens, UniProt Q99623); settings: PHB2, Prohibitin-2
T10 construct: Proteins enriched by c-ponatinib from U2OS cell lysate; endogenous in cells; host or cells: U2OS cell lysate
How it was run: as §1

[11] = target: T11, proteins of U2OS cell lysate (Homo sapiens, UniProt P08559); settings: PDHA1, Pyruvate dehydrogenase E1 component subunit alpha, somatic form, mitochondrial
T11 construct: Proteins enriched by c-ponatinib from U2OS cell lysate; endogenous in cells; host or cells: U2OS cell lysate
How it was run: as §1

[12] = target: T12, proteins of U2OS cell lysate (Homo sapiens, UniProt P49207); settings: RPL34, 60S ribosomal protein L34
T12 construct: Proteins enriched by c-ponatinib from U2OS cell lysate; endogenous in cells; host or cells: U2OS cell lysate
How it was run: as §1

[13] = target: T13, proteins of U2OS cell lysate (Homo sapiens, UniProt P20700); settings: LMNB1, Lamin-B1
T13 construct: Proteins enriched by c-ponatinib from U2OS cell lysate; endogenous in cells; host or cells: U2OS cell lysate
How it was run: as §1

[14] = target: T14, proteins of U2OS cell lysate (Homo sapiens, UniProt Q15365); settings: PCBP1, Poly(rC)-binding protein 1
T14 construct: Proteins enriched by c-ponatinib from U2OS cell lysate; endogenous in cells; host or cells: U2OS cell lysate
T14 sequence (Q15365 whole entry): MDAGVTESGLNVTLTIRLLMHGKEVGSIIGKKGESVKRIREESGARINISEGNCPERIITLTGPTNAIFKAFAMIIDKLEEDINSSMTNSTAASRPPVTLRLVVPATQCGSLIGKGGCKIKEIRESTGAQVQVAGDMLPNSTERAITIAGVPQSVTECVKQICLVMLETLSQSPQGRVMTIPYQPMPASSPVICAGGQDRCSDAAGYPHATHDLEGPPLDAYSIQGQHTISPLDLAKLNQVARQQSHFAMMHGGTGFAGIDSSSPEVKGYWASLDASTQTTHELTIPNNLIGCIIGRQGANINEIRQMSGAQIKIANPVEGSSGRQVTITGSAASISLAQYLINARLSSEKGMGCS
How it was run: as §1

[15] = target: T15, proteins of U2OS cell lysate (Homo sapiens, UniProt P14314); settings: PRKCSH, Glucosidase 2 subunit beta
T15 construct: Proteins enriched by c-ponatinib from U2OS cell lysate; endogenous in cells; host or cells: U2OS cell lysate
T15 sequence (P14314 15-528): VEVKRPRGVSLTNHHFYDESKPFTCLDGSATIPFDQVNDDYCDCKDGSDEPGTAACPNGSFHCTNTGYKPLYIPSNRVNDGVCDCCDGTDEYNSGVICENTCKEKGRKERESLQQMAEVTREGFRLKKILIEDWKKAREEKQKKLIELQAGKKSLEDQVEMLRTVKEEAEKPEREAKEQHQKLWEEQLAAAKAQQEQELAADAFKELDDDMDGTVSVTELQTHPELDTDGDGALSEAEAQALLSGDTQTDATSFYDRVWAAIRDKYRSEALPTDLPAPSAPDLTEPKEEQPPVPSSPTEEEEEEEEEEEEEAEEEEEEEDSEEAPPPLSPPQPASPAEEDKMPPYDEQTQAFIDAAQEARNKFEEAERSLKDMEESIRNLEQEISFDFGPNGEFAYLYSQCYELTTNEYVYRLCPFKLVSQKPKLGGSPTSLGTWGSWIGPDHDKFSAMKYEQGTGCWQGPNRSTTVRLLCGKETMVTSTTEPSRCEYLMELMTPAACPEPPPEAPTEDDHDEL
How it was run: as §1

[16] = target: T16, proteins of U2OS cell lysate (Homo sapiens, UniProt P51572); settings: BCAP31, B-cell receptor-associated protein 31
T16 construct: Proteins enriched by c-ponatinib from U2OS cell lysate; endogenous in cells; host or cells: U2OS cell lysate
T16 sequence (P51572 whole entry): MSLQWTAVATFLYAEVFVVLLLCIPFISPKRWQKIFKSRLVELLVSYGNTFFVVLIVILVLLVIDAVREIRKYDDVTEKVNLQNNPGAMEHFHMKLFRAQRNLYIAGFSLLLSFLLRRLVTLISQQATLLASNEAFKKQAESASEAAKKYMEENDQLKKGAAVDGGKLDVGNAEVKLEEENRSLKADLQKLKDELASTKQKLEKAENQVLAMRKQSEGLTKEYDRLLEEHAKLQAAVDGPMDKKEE
How it was run: as §1

[17] = target: T17, proteins of U2OS cell lysate (Homo sapiens, UniProt P62269); settings: RPS18, 40S ribosomal protein S18
T17 construct: Proteins enriched by c-ponatinib from U2OS cell lysate; endogenous in cells; host or cells: U2OS cell lysate
How it was run: as §1

[18] = target: T18, proteins of U2OS cell lysate (Homo sapiens, UniProt P10809); settings: HSPD1, 60 kDa heat shock protein, mitochondrial
T18 construct: Proteins enriched by c-ponatinib from U2OS cell lysate; endogenous in cells; host or cells: U2OS cell lysate
T18 sequence (P10809 27-573): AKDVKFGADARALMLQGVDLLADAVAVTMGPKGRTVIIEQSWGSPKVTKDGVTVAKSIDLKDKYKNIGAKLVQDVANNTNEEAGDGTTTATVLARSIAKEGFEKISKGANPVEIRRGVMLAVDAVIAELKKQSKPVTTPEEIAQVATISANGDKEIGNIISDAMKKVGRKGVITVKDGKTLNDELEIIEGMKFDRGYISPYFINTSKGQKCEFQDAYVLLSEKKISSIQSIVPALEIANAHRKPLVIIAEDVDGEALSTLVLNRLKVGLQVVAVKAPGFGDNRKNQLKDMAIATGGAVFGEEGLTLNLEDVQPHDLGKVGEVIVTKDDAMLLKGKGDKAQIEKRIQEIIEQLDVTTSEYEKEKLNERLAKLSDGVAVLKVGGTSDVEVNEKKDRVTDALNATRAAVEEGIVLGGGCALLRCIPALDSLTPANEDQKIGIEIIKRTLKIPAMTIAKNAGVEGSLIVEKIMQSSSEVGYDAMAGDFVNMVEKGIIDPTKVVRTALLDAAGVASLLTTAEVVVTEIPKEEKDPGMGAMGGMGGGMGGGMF
How it was run: as §1

[19] = target: T19, proteins of U2OS cell lysate (Homo sapiens, UniProt Q00839); settings: captured protein HNRNPU, Rank 192
T19 construct: Proteins enriched by c-ponatinib from U2OS cell lysate; endogenous in cells; host or cells: U2OS cell lysate
T19 sequence (Q00839 whole entry): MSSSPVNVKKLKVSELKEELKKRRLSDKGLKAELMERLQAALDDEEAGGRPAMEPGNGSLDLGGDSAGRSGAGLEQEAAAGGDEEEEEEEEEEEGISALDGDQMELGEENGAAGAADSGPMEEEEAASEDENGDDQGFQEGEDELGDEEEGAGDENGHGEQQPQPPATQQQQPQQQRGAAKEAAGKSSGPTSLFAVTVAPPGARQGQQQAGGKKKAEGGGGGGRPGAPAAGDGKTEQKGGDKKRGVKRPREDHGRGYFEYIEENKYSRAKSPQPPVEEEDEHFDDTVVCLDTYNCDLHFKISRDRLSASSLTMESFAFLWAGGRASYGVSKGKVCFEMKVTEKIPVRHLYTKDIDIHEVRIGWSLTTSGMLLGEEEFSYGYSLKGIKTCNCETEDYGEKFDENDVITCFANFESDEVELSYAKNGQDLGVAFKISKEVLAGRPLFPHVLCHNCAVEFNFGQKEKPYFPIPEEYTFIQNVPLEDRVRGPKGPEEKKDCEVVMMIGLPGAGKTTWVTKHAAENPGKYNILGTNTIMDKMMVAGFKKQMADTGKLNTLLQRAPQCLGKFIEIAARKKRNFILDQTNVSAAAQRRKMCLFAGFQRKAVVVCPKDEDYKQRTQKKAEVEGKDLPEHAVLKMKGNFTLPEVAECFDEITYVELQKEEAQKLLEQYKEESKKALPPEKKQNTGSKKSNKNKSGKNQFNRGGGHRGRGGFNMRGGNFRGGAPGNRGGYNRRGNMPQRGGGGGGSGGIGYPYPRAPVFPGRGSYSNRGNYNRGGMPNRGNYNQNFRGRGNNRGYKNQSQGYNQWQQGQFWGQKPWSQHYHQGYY
How it was run: as §1

Row | Compound | Average LFQ PON_WT [1] | Average LFQ PON_WT [2] | Average LFQ PON_WT [3] | Average LFQ PON_WT [4] | Average LFQ PON_WT [5] | Average LFQ PON_WT [6] | Average LFQ PON_WT [7] | Average LFQ PON_WT [8] | Average LFQ PON_WT [9] | Average LFQ PON_WT [10] | Average LFQ PON_WT [11] | Average LFQ PON_WT [12] | Average LFQ PON_WT [13] | Average LFQ PON_WT [14] | Average LFQ PON_WT [15] | Average LFQ PON_WT [16] | Average LFQ PON_WT [17] | Average LFQ PON_WT [18] | Average LFQ intensity [19]
1 | Cc1ccc(C(=O)Nc2ccc(CN3CCN(C)CC3)c(C(F)(F)F)c2)cc1C#Cc1cnc2cccnn12 [PON] | 20.9378 | 24.813 | 20.8973 | 23.2725 | 24.0207 | 23.9034 | 25.577 | 23.8618 | 24.6531 | 28.7804 | 21.0192 | 21.0301 | 25.3205 | 21.283 | 21.2991 | 23.9511 | 21.0717 | 21.1431 | –
2 | Cc1ccc(C(=O)Nc2ccc(CN3CCN(CCCN)CC3)c(C(F)(F)F)c2)cc1C#Cc1cnc2cccnn12 [c-ponatinib, reference compound] | – | – | – | – | – | – | – | – | – | – | – | – | – | – | – | – | – | – | 21.9786

From paper PMC6120666 (The EMBO Journal, 2018)
